Reference: the supplement of paper PMC10307832

Tests used:
Experiment in all cases: relative viability (nuclei count vs DMSO), 5 days (fraction); higher = more cells survive
Apatinib + Palbociclib = compound: N#CC1(c2ccc(NC(=O)c3cccnc3NCc3ccncc3)cc2)CCCC1 [Apatinib] + CC(=O)c1c(C)c2cnc(Nc3ccc(N4CCNCC4)cn3)nc2n(C2CCCC2)c1=O [Palbociclib] (partner 0.5 µM)
In short: (§1)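 Lung cancer cell lines, seeded in 1536-well plates, were treated the following day by pin tool with a single drug or with five library-drug doses (not always all listed) in √10 steps on top of a fixed anchor-drug dose. Cells were fixed and nuclei stained in one step after 5 days, and nuclei were counted. Relative viability is the nuclei count for treated wells divided by that for vehicle wells, reported as medians of duplicate plates.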

Metformin + Linsitinib = compound: CN(C)C(=N)NC(=N)N [Metformin] + C[C@]1(O)C[C@@H](c2nc(-c3ccc4ccc(-c5ccccc5)nc4c3)c3c(N)nccn32)C1 [Linsitinib] (partner 1 µM)
In short: as §1

Apatinib + Dasatinib = compound: N#CC1(c2ccc(NC(=O)c3cccnc3NCc3ccncc3)cc2)CCCC1 [Apatinib] + Cc1nc(Nc2ncc(C(=O)Nc3c(C)cccc3Cl)s2)cc(N2CCN(CCO)CC2)n1 [Dasatinib] (partner 0.075 µM)
In short: as §1

Metformin + Bortezomib = compound: CN(C)C(=N)NC(=N)N [Metformin] + CC(C)C[C@H](NC(=O)[C@H](Cc1ccccc1)NC(=O)c1cnccn1)B(O)O [Bortezomib] (partner 0.002 µM)
In short: as §1

Cell Line	relative viability (Apatinib + Palbociclib; first compound 0.08 µM)	relative viability (Apatinib + Palbociclib; first compound 0.253 µM)	relative viability (Apatinib + Palbociclib; first compound 0.8 µM)	relative viability (Apatinib + Palbociclib; first compound 2.53 µM)	relative viability (Apatinib + Palbociclib; first compound 8 µM)	relative viability (Metformin + Linsitinib; first compound 10 µM)	relative viability (Metformin + Linsitinib; first compound 31.62 µM)	relative viability (Metformin + Linsitinib; first compound 100 µM)	relative viability (Metformin + Linsitinib; first compound 316.23 µM)	relative viability (Metformin + Linsitinib; first compound 1000 µM)	relative viability (Apatinib + Dasatinib; first compound 0.08 µM)	relative viability (Apatinib + Dasatinib; first compound 0.253 µM)	relative viability (Apatinib + Dasatinib; first compound 0.8 µM)	relative viability (Apatinib + Dasatinib; first compound 2.53 µM)	relative viability (Apatinib + Dasatinib; first compound 8 µM)	relative viability (Metformin + Bortezomib; first compound 10 µM)	relative viability (Metformin + Bortezomib; first compound 31.62 µM)	relative viability (Metformin + Bortezomib; first compound 100 µM)	relative viability (Metformin + Bortezomib; first compound 316.23 µM)	relative viability (Metformin + Bortezomib; first compound 1000 µM)
NCI-H661	0.388	0.405	0.417	0.417	0.356	0.761	0.966	0.812	0.767	0.677	1.12	0.957	0.803	0.702	0.708	0.867	0.881	1.36	0.917	1.06
NCI-H1666	0.675	0.638	0.655	0.629	0.626	0.863	1	0.962	0.703	1.09	0.931	0.803	0.796	0.703	0.713	0.789	0.942	0.71	0.828	0.864
SK-LU-1	0.372	0.402	0.433	0.381	0.339	0.947	1.08	0.674	1.08	1.03	0.182	0.207	0.184	0.167	0.175	1.45	1.2	1.1	1.06	1.27
HOP-62	0.441	0.366	0.377	0.361	0.219	0.891	1.09	0.995	1.04	0.846	0.732	0.699	0.689	0.571	0.589	0.602	0.745	0.209	0.723	0.816
CAL-12T	0.448	0.56	0.465	0.485	0.367	0.818	0.81	0.824	0.691	0.759	0.523	0.602	0.38	0.262	0.234	1.16	0.935	1.02	1.06	1.15
BEN	0.521	0.453	0.466	0.478	0.407	1.21	1.27	1.3	1.15	1.29	0.251	0.27	0.245	0.242	0.265	1.08	1.18	0.775	0.993	0.511
HCC-366	0.484	0.378	0.373	0.334	0.306	0.646	0.703	0.75	0.559	0.691	0.661	0.559	0.565	0.647	0.601	1.09	1.11	1.01	1.02	1.12
EMC-BAC-2	0.518	0.536	0.506	0.449	0.412	0.795	0.812	0.799	0.783	0.853	0.32	0.428	0.349	0.282	0.293	1.09	1.11	1.04	1.11	1.09
